The source of these data is publication PMC8886686 (Journal of Inorganic Biochemistry, 2022).

One assay addresses PLpro^C112S (Severe acute respiratory syndrome coronavirus 2, UniProt P0DTD1, C1674S). Type of assay: binding, SARS-CoV-2.
In another assay the target is 3CLpro^D155A/C156S (Severe acute respiratory syndrome coronavirus 2, UniProt P0DTD1, C3419S/D3418A). Type of assay: biochemical, SARS-CoV-2. The following applies: read-out: IC50, 3CLpro^D155A/C156S activity.

SMILES strings stand for the structures.

For `O=C([O-])[C@H](O)[C@@H](O)[C@H](O)[C@H](O)CO.O=C([O-])[C@H](O)[C@@H](O)[C@H](O)[C@H](O)CO.[Zn+2]` [Zn^2+, zinc gluconate], at PLpro^C112S, the “Zn2+ binding capacity of PLpro^C112S (ICP-MS)” value worked out at 0.71 ± 0.01 eq. Further, the IC50 at 3CLpro^D155A/C156S was 1540 ± 50 nM.
